Reference: publication PMC10931745 (International Journal of Molecular Sciences, 2024)

Columns and labels:
[1] = tested on: human mammary epithelial cell line MCF-10A; test: MTT assay, toxicity towards normal cells; assay type: cell-based; conditions: 72 h
Experimental: The cell lines used were purchased from American Type Culture Collection (ATCC, Manassas, VA, USA). Human breast cancer cells MCF-7 and MDA-MB-231, human mammary epithelial cell line MCF-10A, and mouse BALB/3T3 embryonic fibroblasts were cultured as already described by some of us. The murine macrophage cell line RAW 264.7 was maintained in Dulbecco’s Modified Eagle’s Medium (DMEM) high glucose (4.5 g/L) supplemented with 10% Fetal Bovine Serum (FBS), 1% L-glutamine, and 100 units/mL of penicillin/streptomycin. The cell cultures were maintained at the temperature of 37 °C in a humidified atmosphere containing 5% CO2.
The 3-(4,5-dimethylthiazol-2-yl)-2,5-diphenyl-2H-tetrazolium bromide (MTT) assay (Sigma Aldrich (St. Louis, MO, USA)) was carried out to study the in vitro anticancer activities of the complexes, following the previously reported protocol. The cells were incubated for 72 h with different concentrations of the tested compounds (0.1, 1, 10, 25, 50, 100, and 500 µM) and the IC50 values were calculated from the percent (%) of control using the software GraphPad Prism 9 (GraphPad Software, La Jolla, CA, USA).

[2] = molecular target: T1, human topoisomerase I (hTopoI) (Homo sapiens, UniProt P11387); test: Human topoisomerase I relaxation assay; assay type: biochemical; conditions: 1 µM, supercoiled pHOT1 DNA
T1 construct: purchased TopoGEN, Port Orange, FL, USA
T1 sequence (P11387 1-765): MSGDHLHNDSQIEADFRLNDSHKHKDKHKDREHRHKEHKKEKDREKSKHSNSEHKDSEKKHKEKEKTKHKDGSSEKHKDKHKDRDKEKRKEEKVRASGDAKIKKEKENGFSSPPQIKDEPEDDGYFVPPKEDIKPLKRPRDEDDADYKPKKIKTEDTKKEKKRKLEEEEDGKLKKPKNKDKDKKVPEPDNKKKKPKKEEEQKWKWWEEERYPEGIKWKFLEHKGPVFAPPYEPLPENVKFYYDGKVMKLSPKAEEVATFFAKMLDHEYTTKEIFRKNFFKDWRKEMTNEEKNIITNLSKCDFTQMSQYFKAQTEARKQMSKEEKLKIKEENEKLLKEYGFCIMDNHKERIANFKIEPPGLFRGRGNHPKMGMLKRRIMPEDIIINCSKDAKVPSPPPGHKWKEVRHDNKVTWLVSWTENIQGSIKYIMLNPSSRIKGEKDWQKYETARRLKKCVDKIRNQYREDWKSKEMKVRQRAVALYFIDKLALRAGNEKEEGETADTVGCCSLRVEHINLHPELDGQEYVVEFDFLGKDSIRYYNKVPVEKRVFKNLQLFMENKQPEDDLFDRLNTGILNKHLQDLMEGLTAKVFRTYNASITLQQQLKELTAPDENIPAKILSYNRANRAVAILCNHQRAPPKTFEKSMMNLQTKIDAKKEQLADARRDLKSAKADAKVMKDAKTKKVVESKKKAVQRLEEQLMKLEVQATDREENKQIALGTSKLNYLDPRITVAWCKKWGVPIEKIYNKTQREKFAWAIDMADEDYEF
Experimental: The human topoisomerase I relaxation assay was performed as reported in [86]. Shortly, the recombinant human topo I (TopoGEN, Port Orange, FL, USA) was incubated with the super-coiled pHOT1, in the presence or not of the tested compounds, at the indicated concentrations. The reaction products were then allowed to separate through the agarose gel electrophoresis, and ethidium bromide-stained DNA was visualized under UV light.

[3] = DPPH radical scavenging assay; assay type: biochemical
Experimental: The radical scavenging properties of the complexes on the 1,1-diphenyl-2-picrylhydrazil (DPPH) radical were evaluated as previously described.
All the complexes were used at different concentrations (10, 25, 50, 100, and 200 µg/mL) and the DPPH radical scavenging activity, measured at 517 nm using a microplate reader, was expressed as inhibition percentages (%IDPPH) compared to the initial concentration of DPPH (control) according to the following expression:(2) IDPPH (%)=ABSCTRL−ABSsample/ABSCTRL∗100 where ABSCTRL and ABSsample are the absorbance at 517 nm in the control and in the presence of samples, respectively.
The obtained IDPPH percentages allowed us to calculate the IC50 values using Graph-Pad Prism 9 software (GraphPad Inc., San Diego, CA, USA). Trolox was employed as a positive control, while caffeine and theophylline were reference compounds.

[4] = tested on: ROS production in BALB/3T3 fibroblasts; test: Intracellular ROS detection with DCFH2-DA; assay type: cell-based, murine; conditions: 25 µM, 24 h pre-treatment
Experimental: In vitro detection of intracellular ROS on fibroblasts BALB/3T3 using DCFH2-DA The assay to evaluate the in vitro antioxidant activity was carried out using the murine BALB/3T3 fibroblasts that were plated in a white 96 MW and then treated with the complexes at a concentration of 25 µM for 24 h. Menadione (25 µM) was then added for 15 min to induce ROS production. After treatment, the cells were washed with PBS and treated with 25 μM 2′-7′-dichlorofluorescein diacetate (DCFH2-DA, Sigma-Aldrich, St. Louis, MO, USA), and then they were incubated for 40 min at 37 °C and 5% CO2. The probe DCFH2-DA penetrates cells where it is […] into a non-fluorescent form (DCFH2) by endogenous esterases. In the presence of intracellular ROS, non-fluorescent H2DCF is oxidized to the fluorescent 2′,7′-dichlorofluorescein (DCF). Then, the cells were washed with PBS and the fluorescence was detected using a multiplate reader (λex = 485 nm, λem = 535 nm). Based on the obtained fluorescence values, the ROS production inhibition % (IROS) vs. menadione was calculated using the following formula:(1) IROS vs. Menadione (%)=FMen−FSample/FMen∗100 where FMen represents the mean fluorescence obtained after treatment with menadione alone and Fsample represents the mean fluorescence obtained after the co-treatment with the complexes and menadione.

[5] = tested on: Pseudomonas aeruginosa (ATCC 15442); test: MIC/MBC broth dilution; assay type: cell-based
Experimental: (§1) The bacterial strains used for MIC and MBC value determinations expressed as µg/mL by the broth dilution method, according to CLSI guidelines, were the following:
(§2) Increasing concentrations of the complexes (50, 70, 100, 150, and 200 µg/mL) were incubated with bacteria plated in 96-well microplates at 37 °C overnight as already reported, and then bacterial growth was checked at a wavelength of 600 nm using a Multiskan spectrophotometer (model Multiskan Ex Microplate; Thermo Scientific, Nyon, Switzerland). MIC or MBC values were obtained by comparing cell density with a positive control (bacterial cells grown in LB medium were added with only the vehicle, DMSO). […] Ampicillin, Gentamicin, and Cephalosporin (Sigma Aldrich A9393) were used as the control for strain sensitivity.

[6] = tested on: Salmonella typhimurium (ATCC 14028); test: MIC/MBC broth dilution; assay type: cell-based
Experimental: as §1, §2

Inhibition of hTopo I supercoil relaxing activity [2]	IC50 [3] [µM]	Compound	IC50 [1] [µM]	ROS level reduction vs. menadione [4]	M.B.C. P. aeruginosa [5] [µg/mL]	M.I.C. P. aeruginosa [5] [µg/mL]	M.B.C. S. typhimurium [6] [µg/mL]	M.I.C. S. typhimurium [6] [µg/mL]
totally inhibited	> 500	Cn1c(=O)c2c(n(C)[c]([Au-][I])[n+]2CC(O)c2ccccc2)n(C)c1=O (racemic) [AuL1, 1,3,7-Trimethylxanthin-9-[(2-hydroxy-2-phenyl)ethyl-8-ylidene]Au(I) Iodide]	> 100	approximately 69%	> 125	100	> 200	150
totally inhibited	> 500	CC(=O)[O][Ag-][c]1n(C)c2c(c(=O)n(C)c(=O)n2C)[n+]1C1CCCCC1O (stereo not shown) [AgL2OAc, 1,3,7-Trimethylxanthin-9-[cyclohexan-2-ol-8-ylidene]Ag(I) Acetate]	> 100	~59%	> 125	100	> 200	150
